# Several values for one entry are separate records, joined by “and”; a condition that tells them apart may be missing. Identical values can stand only once. Like-named read-outs stand apart in the source and are kept apart here.
# Legend:
# [1] = molecular target: T1, PSMA (Homo sapiens, UniProt Q04609); set-up: method as in PMID 36168623; details: LNCaP cells; cited from earlier work
# T1 construct: host or cells: LNCaP prostate cancer cells
# [2] = molecular target: T1, PSMA; assay: In vitro competition binding assay, LNCaP cells, [^18F]DCFPyL as radioligand
# Description: The LNCaP cells obtained from ATCC (via Cedarlane, Burlington, Canada) were cultured in RPMI 1640 medium supplemented with 10% FBS, penicillin (100 U/mL) and streptomycin (100 μg/mL) at 37 °C in a Panasonic Healthcare (Tokyo, Japan) MCO-19AIC humidified incubator containing 5% CO2. The cells were confirmed pathogen free by the IMPACT Rodent Pathogen Test (IDEXX BioAnalytics). Cells grown to 80-90% confluence were then washed with sterile PBS and collected after trypsinization. The cell concentration was counted in triplicate using a hemocytometer and a manual laboratory counter.
# In vitro competition binding assays were conducted as previously reported using LNCaP prostate cancer cells and [^18F]DCFPyL as the radioligand [10]-[12],[14]. Briefly, LNCaP cells (400,000/well) were plated onto a 24-well poly-D-lysine coated plate for 48 h. Growth media was removed and replaced with HEPES buffered saline (50 mM HEPES, pH 7.5, 0.9% sodium chloride) and the cells were incubated for 1 h at 37 °C. [^18F]DCFPyL (0.1 nM) was added to each well (in triplicate) containing various concentrations (0.5 mM - 0.05 nM) of tested ligands. Non-specific binding was determined in the presence of 10 µM non-radiolabeled DCFPyL. The assay mixtures were further incubated for 1 h at 37 °C with gentle agitation. Then, the buffer and hot ligand were removed, and cells were washed twice with cold HEPES buffered saline. To harvest the cells, 400 µL of 0.25% trypsin solution was added to each well. Radioactivity was measured on an automatic gamma counter. Nonlinear regression analyses and Ki calculations were performed using the GraphPad Prism 7 software.
# [3] = test system: LNCaP tumor-bearing mice; assay: PET/CT imaging in LNCaP tumor-bearing mice; assay type: in vivo, mouse; details: 1 h post-injection
# Description: Imaging, biodistribution and radioligand therapy experiments were performed following previously published procedures using male NOD-scid IL2Rg^null (NSG) or NOD.Cg-Rag1^tm1MomIl2rg^tm1Wjl/SzJ (NRG) mice [10]-[12],[14]-[15]. The experiments were conducted according to the guidelines established by the Canadian Council on Animal Care and approved by Animal Ethics Committee of the University of British Columbia. The mice were briefly sedated by inhalation of 2% isoflurane in oxygen, and implanted subcutaneously with 1×10^7 LNCaP cells behind the left shoulder. The mice were imaged or used in biodistribution studies when the tumor grew to 5-8 mm in diameter over a period of 4-5 weeks.
# PET/CT imaging experiments were conducted using a Siemens (Knoxville, TN, USA) Inveon micro PET/CT scanner. Each tumor-bearing mouse was injected with ~6-8 MBq of ^68Ga-labeled tracer through a lateral caudal tail vein. After 50 min post-injection, a 10-min CT scan was conducted first for localization and attenuation correction after segmentation for reconstructing the PET images, followed by a 10-min static PET imaging acquisition.
# [4] = test system: LNCaP tumor-bearing mice; assay: Ex vivo biodistribution in LNCaP tumor-bearing mice; set-up: species or system mouse; details: 1 h post-injection
# Summary of the method: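 Male NSG or NRG mice bearing subcutaneous LNCaP tumours (5-8 mm) were injected with 2-4 MBq radioligand, with 0.5 mg nonradioactive DCFPyL co-injected for blocking. At set time points, blood and organs were collected, weighed and gamma-counted.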
# [5] = blocked, co-injected with DCFPyL (0.5 mg)
# T1 sequence (Q04609 whole entry): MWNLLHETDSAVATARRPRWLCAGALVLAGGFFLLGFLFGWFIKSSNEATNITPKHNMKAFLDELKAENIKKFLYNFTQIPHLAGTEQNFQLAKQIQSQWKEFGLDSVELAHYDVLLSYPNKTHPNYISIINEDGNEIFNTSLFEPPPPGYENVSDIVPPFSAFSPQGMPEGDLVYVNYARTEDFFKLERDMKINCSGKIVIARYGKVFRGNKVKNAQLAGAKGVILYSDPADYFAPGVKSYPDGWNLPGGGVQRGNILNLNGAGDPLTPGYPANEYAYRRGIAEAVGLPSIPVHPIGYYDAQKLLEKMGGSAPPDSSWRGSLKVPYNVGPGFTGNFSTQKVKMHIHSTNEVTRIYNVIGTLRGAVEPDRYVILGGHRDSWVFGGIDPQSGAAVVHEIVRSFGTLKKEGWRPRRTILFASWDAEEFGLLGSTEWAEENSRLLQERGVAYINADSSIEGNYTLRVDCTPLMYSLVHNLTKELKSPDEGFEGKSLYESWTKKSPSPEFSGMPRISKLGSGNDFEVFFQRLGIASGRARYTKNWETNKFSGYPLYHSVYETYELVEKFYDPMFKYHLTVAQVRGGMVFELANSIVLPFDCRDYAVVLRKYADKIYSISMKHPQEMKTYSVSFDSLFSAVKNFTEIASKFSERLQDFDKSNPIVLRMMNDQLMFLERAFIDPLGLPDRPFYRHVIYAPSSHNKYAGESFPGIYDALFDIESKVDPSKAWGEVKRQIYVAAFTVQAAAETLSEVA
smiles,measurement,setting,value
O=C([O-])CN1CCN(CC(=O)[O-])CCN(CC(=O)NCC2CCC(C(=O)NC(Cc3c4ccccc4cc4ccccc34)C(=O)NCCCCC(NC(=O)NC(CCCC(=O)O)C(=O)O)C(=O)O)CC2)CCN(CC(=O)[O-])CC1.[Ga+3] (centres unmarked) [Ga-HTK03149],Ki,[1],6.99 ± 0.8 nM
COc1ccc(CCCC(=O)NCC(=O)N[C@@H](CCCCNC(=O)CN2CCN(CC(=O)[O-])CCN(CC(=O)[O-])CCN(CC(=O)[O-])CC2)C(=O)NC[C@H]2CC[C@H](C(=O)N[C@@H](Cc3c4ccccc4cc4ccccc34)C(=O)NCCCC[C@H](NC(=O)N[C@@H](COCC(=O)O)C(=O)O)C(=O)O)CC2)cc1.[Lu+3] [Lu-HTK04028],Ki,[2],13.9 ± 3.2 nM
O=C([O-])CN1CCN(CC(=O)[O-])CCN(CC(=O)NCC2CCC(C(=O)NC(Cc3c4ccccc4cc4ccccc34)C(=O)NCCCCC(NC(=O)NC(CSCC(=O)O)C(=O)O)C(=O)O)CC2)CCN(CC(=O)[O-])CC1.[68Ga+3] (centres unmarked) [[^68Ga]Ga-HTK03177],Kidney uptake in PET images,[3],moderate
same,Adrenal glands uptake,[4],0.46 ± 0.17 %ID/g
same,Blood uptake,[4],0.70 ± 0.06 %ID/g
same,Blood:Salivary gland uptake ratio,[4],3.14 ± 0.19
same,Bone uptake,[4],0.10 ± 0.03 %ID/g
same,Brain uptake,[4],0.02 ± 0.00 %ID/g
same,Fat uptake,[4],0.09 ± 0.04 %ID/g
same,Heart uptake,[4],0.21 ± 0.01 %ID/g
same,Intestines uptake,[4],0.21 ± 0.02 %ID/g
same,Kidneys uptake,[4],7.76±1.00 %ID/g and < 8.0 %ID/g
same,Lacrimal glands uptake,[4],0.12 ± 0.06 %ID/g
same,Liver uptake,[4],0.33 ± 0.20 %ID/g
same,Lungs uptake,[4],0.61 ± 0.08 %ID/g
same,Muscle uptake,[4],0.10 ± 0.01 %ID/g
same,Pancreas uptake,[4],0.14 ± 0.01 %ID/g
same,Salivary glands uptake,[4],0.22±0.02 %ID/g and < 0.25 %ID/g
same,Spleen uptake,[4],0.42 ± 0.15 %ID/g
same,Stomach uptake,[4],0.15 ± 0.09 %ID/g
same,Testes uptake,[4],0.25 ± 0.07 %ID/g
same,Thyroid uptake,[4],0.23 ± 0.01 %ID/g
same,Tumor uptake,[4],24.7±6.85 %ID/g and 21-25 %ID/g
same,Tumor:Blood uptake ratio,[4],36.1±12.5
same,Tumor:Kidney uptake ratio,[4],3.25±1.16
same,Tumor:Muscle uptake ratio,[4],265±103
same,Tumor:Salivary gland uptake ratio,[4],112±33.1
same,Adrenal glands uptake,[4]; [5],0.61 ± 0.38 %ID/g
same,Blood uptake,[4]; [5],0.85 ± 0.15 %ID/g
same,Blood:Salivary gland uptake ratio,[4]; [5],6.07 ± 2.53
same,Bone uptake,[4]; [5],0.24 ± 0.17 %ID/g
same,Brain uptake,[4]; [5],0.02 ± 0.00 %ID/g
same,Fat uptake,[4]; [5],0.20 ± 0.16 %ID/g
same,Heart uptake,[4]; [5],0.23 ± 0.04 %ID/g
same,Intestines uptake,[4]; [5],0.69 ± 0.76 %ID/g
same,Kidneys uptake,[4]; [5],1.73 ± 0.36 %ID/g
same,Lacrimal glands uptake,[4]; [5],0.15 ± 0.10 %ID/g
same,Liver uptake,[4]; [5],0.37 ± 0.22 %ID/g
same,Lungs uptake,[4]; [5],0.54 ± 0.06 %ID/g
same,Muscle uptake,[4]; [5],0.13 ± 0.05 %ID/g
same,Pancreas uptake,[4]; [5],0.54 ± 0.54 %ID/g
same,Salivary glands uptake,[4]; [5],0.15 ± 0.04 %ID/g
same,Spleen uptake,[4]; [5],0.25 ± 0.18 %ID/g
same,Stomach uptake,[4]; [5],0.12 ± 0.05 %ID/g
same,Testes uptake,[4]; [5],0.36 ± 0.14 %ID/g
same,Thyroid uptake,[4]; [5],0.21 ± 0.06 %ID/g
same,Tumor uptake,[4]; [5],0.74 ± 0.12 %ID/g
same,Tumor:Blood uptake ratio,[4]; [5],0.89 ± 0.19
same,Tumor:Kidney uptake ratio,[4]; [5],0.43 ± 0.05
same,Tumor:Muscle uptake ratio,[4]; [5],5.50 ± 2.68
same,Tumor:Salivary gland uptake ratio,[4]; [5],5.05 ± 0.77
same,Reduction of average kidney uptake by co-injection of DCFPyL,[4]; DCFPyL 0.5 mg,78%
COc1ccc(CCCC(=O)NCC(=O)N[C@@H](CCCCNC(=O)CN2CCN(CC(=O)[O-])CCN(CC(=O)[O-])CCN(CC(=O)[O-])CC2)C(=O)NC[C@H]2CC[C@H](C(=O)N[C@@H](Cc3c4ccccc4cc4ccccc34)C(=O)NCCCC[C@H](NC(=O)N[C@@H](CCCC(=O)O)C(=O)O)C(=O)O)CC2)cc1.[Lu+3] [Lu-HTK03170],Ki,[2],1.6 ± 0.4 nM

# From publication PMC10465233, “Lys-urea-Aad, Lys-urea-Cmc and Lys-urea-Cms as potential pharmacophores for the design of PSMA-targeted radioligands to reduce off-target uptake in kidneys and salivary glands” (Theranostics, 2023)
